The source made the active and inactive calls.
Legend:
Leucine aminopeptidase = molecular target: T1, Leucine aminopeptidase (Plasmodium falciparum 3D7, UniProt Q8IL11); assay: P. falciparum M17LAP inhibitors, primary screen, biochemical, fluorogenic H-Leu-NHMec substrate, 1536-well (AID 1619); assay type: functional
T1 sequence (Q8IL11 whole entry): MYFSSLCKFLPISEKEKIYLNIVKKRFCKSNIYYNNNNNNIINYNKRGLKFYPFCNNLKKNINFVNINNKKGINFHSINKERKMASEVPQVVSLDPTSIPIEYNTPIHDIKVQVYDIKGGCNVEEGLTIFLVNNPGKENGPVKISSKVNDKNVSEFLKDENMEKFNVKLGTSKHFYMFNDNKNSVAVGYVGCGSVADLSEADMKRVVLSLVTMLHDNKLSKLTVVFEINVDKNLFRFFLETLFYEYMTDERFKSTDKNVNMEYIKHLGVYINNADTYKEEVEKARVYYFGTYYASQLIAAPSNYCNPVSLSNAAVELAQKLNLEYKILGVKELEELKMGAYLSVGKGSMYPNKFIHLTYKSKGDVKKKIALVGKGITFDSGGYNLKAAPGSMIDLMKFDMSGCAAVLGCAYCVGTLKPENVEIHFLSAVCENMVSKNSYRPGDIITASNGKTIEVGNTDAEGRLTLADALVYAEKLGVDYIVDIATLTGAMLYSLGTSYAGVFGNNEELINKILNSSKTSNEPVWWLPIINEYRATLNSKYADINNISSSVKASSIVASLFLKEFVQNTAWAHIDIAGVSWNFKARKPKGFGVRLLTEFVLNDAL

Fatty acid synthase [1] = molecular target: T2, Fatty acid synthase (Homo sapiens, UniProt P49327); assay: inhibition of human FAS-TE enzyme activity – biochemical, endpoint fluorescence intensity, uHTS hits, dose response (AID 624327); assay type: functional;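 also: fluorescence from hydrolysis of an O-methyl fluorescein acyl ester substrate by the enzyme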
Fatty acid synthase [2] = molecular target: T2, Fatty acid synthase; assay: inhibition of human FAS-TE enzyme activity – biochemical, kinetic fluorescence intensity, dose response (AID 624326); assay type: functional;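 also: rate of fluorescence rise from hydrolysis of a fluorogenic O-methyl fluorescein ester substrate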
[3] = molecular target: T3, Polyadenylate-binding protein 1 (Homo sapiens, UniProt P11940); assay: MLLE binding blockers, Cy5 peptide tracer – biochemical, fluorescence polarization, Cy5-PAM2 peptide, secondary, miRNA deadenylation inhibitor project, dose response (AID 602260); assay type: functional; settings: read-out: IC50_Mean
[4] = molecular target: T3, Polyadenylate-binding protein 1; assay: MLLE domain peptide-binding blockers, IC50 – biochemical, fluorescence polarization, FITC-PAM2 peptide, dose response (AID 602259); assay type: functional; settings: read-out: IC50_Mean
[5] = NIH-3T3 fibroblast cytotoxicity, dose response, cytotoxicity control, cell-based, fluorescence, Alamar Blue, secondary assay (AID 2327); assay type: functional;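 also: NIH-3T3 mouse fibroblasts cultured with fluconazole at 8 µg/mL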
Aminopeptidase N = molecular target: T4, Aminopeptidase N (Plasmodium falciparum FcB1/Columbia, UniProt O96935); assay: malaria alanyl aminopeptidase activity blockers – biochemical, fluorogenic H-Leu-NHMec substrate, 1536-well (AID 1445); parameters: species or system Plasmodium falciparum 3D7, 3D7
T4 sequence (O96935 whole entry): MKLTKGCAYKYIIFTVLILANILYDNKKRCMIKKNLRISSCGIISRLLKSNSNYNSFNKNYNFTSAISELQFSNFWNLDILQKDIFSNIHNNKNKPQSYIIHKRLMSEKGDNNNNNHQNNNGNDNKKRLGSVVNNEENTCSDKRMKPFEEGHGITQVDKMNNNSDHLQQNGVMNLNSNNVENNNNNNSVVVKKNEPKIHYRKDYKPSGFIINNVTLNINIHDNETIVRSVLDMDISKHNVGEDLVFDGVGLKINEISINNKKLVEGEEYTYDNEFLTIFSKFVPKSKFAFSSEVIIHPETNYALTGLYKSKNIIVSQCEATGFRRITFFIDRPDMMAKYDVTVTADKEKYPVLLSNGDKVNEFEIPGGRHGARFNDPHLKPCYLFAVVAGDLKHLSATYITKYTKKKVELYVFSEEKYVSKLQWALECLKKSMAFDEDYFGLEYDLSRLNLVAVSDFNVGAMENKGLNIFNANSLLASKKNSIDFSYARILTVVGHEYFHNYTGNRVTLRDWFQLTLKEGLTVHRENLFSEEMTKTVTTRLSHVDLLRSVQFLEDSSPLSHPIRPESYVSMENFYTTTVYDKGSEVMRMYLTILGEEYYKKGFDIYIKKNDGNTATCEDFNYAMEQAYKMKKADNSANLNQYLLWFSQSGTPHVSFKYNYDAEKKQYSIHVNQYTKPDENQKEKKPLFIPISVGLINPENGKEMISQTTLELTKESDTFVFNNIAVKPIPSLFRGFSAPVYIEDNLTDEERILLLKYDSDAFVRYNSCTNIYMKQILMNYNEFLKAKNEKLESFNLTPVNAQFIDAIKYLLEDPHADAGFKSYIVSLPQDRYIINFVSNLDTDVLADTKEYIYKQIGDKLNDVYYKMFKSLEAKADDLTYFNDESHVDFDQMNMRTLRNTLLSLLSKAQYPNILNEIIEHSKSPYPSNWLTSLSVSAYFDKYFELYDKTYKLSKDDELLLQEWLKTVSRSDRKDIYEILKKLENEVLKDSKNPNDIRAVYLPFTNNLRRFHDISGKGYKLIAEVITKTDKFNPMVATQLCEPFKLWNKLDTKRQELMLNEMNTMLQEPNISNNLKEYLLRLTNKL

cells [6] = assay type: functional, cell-based
[7] = fluconazole-exposed Candida albicans growth modulators – fluorescence, retest, confirmation (AID 2467); assay type: functional, cell-based
cells [8] = assay type: functional, cell-based; remark: listed apart in the source
[9] = THP-1 cell cytotoxicity, dose response, cytotoxicity control for non-replicating M. tuberculosis project (AID 489025); assay type: functional
[10] = HepG2 cell cytotoxicity, dose response, cytotoxicity control for non-replicating M. tuberculosis project (AID 489018); assay type: functional; settings: Mycobacterium tuberculosis
[11] = Vero E6 cell cytotoxicity, dose response, cytotoxicity control for non-replicating M. tuberculosis project, secondary assay (AID 492998); assay type: functional, VeroE6; settings: Vero C1008
HEK293 = assay: EBV LMP1 TES2 canonical NF-kB signalling blockers – cell-based, HEK293, luciferase, cherry-pick, dose response (AID 588343); assay type: functional; settings: Homo sapiens
[12] = molecular target: T5, Short transient receptor potential channel 4 (Mus musculus, UniProt Q9QUQ5); assay: block of DAMGO-driven TRPC4 calcium entry – cell-based, HEK293 TRPC4/mu-opioid, Fluo-4 calcium, dose response (AID 434942); assay type: functional;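 also: potency of inhibitors blocking the TRPC4 calcium response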
T5 sequence (Q9QUQ5 whole entry): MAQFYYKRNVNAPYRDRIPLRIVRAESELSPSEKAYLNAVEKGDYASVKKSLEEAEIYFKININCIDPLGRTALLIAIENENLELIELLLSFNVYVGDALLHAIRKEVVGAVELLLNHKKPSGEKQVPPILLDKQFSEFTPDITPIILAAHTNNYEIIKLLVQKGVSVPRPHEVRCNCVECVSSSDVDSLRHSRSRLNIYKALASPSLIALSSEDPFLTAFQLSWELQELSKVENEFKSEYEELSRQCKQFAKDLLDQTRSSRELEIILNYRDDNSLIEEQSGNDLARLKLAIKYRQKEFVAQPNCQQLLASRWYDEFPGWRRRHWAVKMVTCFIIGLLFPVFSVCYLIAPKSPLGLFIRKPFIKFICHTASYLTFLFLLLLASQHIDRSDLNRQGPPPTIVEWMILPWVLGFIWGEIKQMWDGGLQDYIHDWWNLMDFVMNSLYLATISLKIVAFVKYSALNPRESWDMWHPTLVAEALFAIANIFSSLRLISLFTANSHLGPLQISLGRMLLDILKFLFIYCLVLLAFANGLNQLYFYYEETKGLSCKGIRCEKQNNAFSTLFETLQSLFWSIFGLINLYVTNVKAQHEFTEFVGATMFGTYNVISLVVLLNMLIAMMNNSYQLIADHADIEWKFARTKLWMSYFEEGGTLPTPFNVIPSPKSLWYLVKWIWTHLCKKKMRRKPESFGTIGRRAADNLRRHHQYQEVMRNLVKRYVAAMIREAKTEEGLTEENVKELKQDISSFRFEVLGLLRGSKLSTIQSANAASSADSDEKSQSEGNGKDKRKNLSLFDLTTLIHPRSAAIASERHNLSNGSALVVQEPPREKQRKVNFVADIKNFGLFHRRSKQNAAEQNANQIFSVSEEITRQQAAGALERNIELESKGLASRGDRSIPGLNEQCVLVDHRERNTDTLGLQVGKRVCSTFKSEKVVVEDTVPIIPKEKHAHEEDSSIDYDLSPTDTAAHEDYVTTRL

[13] = molecular target: T6, Microphthalmia-associated transcription factor (Homo sapiens, UniProt O75030); assay: reducers of TRPM1 reporter luminescence, concentration series – cell-based, SK-MEL-5, cherry-picked, set 3, MITF inhibitor project, dose response (AID 493073); assay type: functional;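 also: SK-MEL-5 melanoma cells with luciferase driven by the MITF target TRPM1 promoter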
T6 sequence (O75030 whole entry): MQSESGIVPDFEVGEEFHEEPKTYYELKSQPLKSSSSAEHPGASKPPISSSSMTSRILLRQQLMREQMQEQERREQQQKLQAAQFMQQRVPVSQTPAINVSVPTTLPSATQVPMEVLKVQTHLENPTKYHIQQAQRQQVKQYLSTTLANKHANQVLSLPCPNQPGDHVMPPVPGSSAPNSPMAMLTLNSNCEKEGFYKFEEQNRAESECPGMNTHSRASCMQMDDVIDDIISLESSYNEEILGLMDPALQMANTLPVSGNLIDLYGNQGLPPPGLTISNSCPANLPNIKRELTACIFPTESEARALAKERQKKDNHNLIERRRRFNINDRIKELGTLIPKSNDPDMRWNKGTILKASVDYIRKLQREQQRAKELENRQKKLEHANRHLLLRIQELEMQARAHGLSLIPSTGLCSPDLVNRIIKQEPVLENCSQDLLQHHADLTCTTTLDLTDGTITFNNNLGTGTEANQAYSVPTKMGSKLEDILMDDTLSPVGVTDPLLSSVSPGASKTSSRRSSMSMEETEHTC

INS1 = assay: INS-1E survival protection against cytokine death – cell-based, luminescence, retest, dose response (AID 449756); assay type: functional; settings: Rattus norvegicus;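 also: cell death triggered by IL-1 beta plus TNF-alpha plus IFN-gamma mixture; protective hits raise ATP signal compared with cytokine alone wells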
cells [14] = assay type: functional

T3 sequence (P11940 whole entry, the tested form may be a part): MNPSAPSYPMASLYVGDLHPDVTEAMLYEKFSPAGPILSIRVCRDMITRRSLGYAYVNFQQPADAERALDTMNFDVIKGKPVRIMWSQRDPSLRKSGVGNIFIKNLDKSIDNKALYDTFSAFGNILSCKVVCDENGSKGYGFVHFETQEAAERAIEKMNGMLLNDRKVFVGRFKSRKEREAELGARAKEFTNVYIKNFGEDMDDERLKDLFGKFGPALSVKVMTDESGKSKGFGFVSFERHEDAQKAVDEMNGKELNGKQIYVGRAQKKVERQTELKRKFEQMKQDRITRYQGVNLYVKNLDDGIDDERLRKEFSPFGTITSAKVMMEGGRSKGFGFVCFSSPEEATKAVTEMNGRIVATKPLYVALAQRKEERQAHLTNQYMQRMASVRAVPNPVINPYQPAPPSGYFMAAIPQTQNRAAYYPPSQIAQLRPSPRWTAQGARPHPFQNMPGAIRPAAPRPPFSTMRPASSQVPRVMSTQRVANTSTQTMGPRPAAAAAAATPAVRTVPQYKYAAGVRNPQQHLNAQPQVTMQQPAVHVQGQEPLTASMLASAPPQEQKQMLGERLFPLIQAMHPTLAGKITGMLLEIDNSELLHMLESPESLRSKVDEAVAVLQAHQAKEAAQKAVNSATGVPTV
T2 sequence (P49327 whole entry): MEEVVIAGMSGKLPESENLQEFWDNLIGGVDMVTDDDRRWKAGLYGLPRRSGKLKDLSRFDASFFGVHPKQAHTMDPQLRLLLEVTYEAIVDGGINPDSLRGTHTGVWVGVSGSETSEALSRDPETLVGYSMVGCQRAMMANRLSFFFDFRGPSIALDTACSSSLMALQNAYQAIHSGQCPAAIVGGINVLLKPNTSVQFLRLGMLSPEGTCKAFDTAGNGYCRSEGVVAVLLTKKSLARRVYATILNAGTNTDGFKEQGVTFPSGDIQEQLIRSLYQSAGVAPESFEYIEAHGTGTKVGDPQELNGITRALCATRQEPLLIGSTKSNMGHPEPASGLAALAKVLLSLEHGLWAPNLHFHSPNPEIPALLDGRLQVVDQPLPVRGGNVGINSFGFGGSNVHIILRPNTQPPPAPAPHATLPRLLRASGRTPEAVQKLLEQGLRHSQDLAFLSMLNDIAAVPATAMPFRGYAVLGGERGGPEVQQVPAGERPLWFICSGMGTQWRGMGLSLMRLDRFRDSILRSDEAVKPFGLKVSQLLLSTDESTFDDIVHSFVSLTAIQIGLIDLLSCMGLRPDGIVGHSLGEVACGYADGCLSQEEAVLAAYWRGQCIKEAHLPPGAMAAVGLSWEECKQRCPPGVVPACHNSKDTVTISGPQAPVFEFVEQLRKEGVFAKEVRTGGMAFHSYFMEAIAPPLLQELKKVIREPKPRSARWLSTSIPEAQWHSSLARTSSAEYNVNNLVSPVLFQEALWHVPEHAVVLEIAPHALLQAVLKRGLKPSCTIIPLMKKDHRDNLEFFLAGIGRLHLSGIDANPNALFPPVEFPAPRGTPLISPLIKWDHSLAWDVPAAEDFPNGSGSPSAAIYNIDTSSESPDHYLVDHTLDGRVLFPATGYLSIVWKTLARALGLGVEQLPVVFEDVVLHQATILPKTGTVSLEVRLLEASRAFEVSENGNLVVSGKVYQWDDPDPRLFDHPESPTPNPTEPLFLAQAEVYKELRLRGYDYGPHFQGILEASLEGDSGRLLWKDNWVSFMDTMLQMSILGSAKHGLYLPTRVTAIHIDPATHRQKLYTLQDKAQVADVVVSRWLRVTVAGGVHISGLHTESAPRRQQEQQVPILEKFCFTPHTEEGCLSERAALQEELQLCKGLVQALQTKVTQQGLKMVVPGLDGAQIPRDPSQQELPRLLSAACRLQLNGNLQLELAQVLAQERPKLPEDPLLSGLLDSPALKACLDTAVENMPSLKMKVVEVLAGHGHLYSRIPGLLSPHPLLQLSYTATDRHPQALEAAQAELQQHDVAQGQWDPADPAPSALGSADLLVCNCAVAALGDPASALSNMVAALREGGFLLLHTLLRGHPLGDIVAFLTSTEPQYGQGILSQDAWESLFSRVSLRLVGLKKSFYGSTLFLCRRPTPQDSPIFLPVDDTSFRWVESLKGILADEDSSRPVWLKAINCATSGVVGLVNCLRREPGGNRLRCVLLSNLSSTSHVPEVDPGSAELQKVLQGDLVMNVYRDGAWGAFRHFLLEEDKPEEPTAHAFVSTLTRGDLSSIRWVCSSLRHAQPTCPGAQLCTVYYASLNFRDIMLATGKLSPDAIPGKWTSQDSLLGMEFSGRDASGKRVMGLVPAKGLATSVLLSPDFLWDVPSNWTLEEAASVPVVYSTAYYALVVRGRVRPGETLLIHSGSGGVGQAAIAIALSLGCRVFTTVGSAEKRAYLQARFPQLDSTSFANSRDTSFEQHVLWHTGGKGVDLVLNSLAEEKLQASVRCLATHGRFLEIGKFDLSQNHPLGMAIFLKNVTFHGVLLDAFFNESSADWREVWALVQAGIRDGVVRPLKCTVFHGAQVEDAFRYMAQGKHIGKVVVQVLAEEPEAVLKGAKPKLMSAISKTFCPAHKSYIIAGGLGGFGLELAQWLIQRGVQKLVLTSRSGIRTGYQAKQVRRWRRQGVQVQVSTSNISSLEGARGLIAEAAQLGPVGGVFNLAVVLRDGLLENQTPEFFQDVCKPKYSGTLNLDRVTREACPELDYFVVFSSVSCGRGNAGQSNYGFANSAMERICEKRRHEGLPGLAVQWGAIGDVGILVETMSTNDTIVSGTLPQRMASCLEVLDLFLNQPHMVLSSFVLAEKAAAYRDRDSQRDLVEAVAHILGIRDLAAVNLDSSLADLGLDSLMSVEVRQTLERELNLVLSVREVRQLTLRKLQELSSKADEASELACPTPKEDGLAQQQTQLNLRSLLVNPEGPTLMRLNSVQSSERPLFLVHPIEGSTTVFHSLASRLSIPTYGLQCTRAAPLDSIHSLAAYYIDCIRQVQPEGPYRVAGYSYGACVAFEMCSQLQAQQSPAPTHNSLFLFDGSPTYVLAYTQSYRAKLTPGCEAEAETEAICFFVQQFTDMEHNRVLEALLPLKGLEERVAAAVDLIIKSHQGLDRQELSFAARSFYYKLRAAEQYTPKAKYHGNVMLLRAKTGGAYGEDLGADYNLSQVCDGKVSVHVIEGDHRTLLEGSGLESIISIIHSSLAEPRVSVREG

Structure (SMILES): Cc1c(OCc2nn[nH]n2)ccc2c(-c3ccccc3)cc(=O)oc12
- IC50 (Leucine aminopeptidase): 95.1 µM (active)
- IC50 (Fatty acid synthase [1]): 1.59 µM (active)
- IC50 (Fatty acid synthase [2]): 1.61 µM (active)

Structure (SMILES): CCn1c(N)c(C(=O)NC2CCCCC2)sc1=S
- IC50 [3]: > 66 µM (inactive)
- IC50 [4]: > 66 µM (inactive)

Structure (SMILES): O=C(N/N=C/c1cc(Br)ccc1O)c1ccccc1Cl
- EC50 [5]: > 160 µM (inactive)
- IC50 (Aminopeptidase N): 8.06 µM (active)
- EC50 (cells [6]): 103 µM (active)
- EC50 [7]: > 38 µM (not active)
- EC50 (cells [8]): > 350 µM (not active)
- CC50 [9]: 2.16 µM (active)
- CC50 [10]: 8.07 µM (active)
- CC50 [11]: 6.98 µM (active)
- AC50 (HEK293): 18.9 µM (active)

Structure (SMILES): CCOc1cc(C2C3=C(CCCC3=O)OC3=C2C(=O)CCC3)cc([N+](=O)[O-])c1O
- IC50 (Aminopeptidase N): 46.3 µM (active)

Structure (SMILES): O=C(CN1CCN(Cc2ccccc2Cl)CC1)N=Nc1c(O)[nH]c2ccccc12
- EC50 [12]: 0.376 µM (active)

Structure (SMILES): Cc1ccc(C)c2nc(O)c(CN(CC3CCCO3)C(S)=NCc3ccco3)cc12 (stereo not drawn)
- EC50 [12]: 2.11 µM (active)

Structure (SMILES): O=C(O)CCCC(=O)N1N=C(c2c(O)nc3ccc(Cl)cc3c2-c2ccccc2)CC1c1cccs1 (stereo not drawn)
- IC50 (Aminopeptidase N): 20.3 µM (active)

Structure (SMILES): Cc1ccc(-c2c[n+](-c3ccc(SC(F)F)cc3)c3n2CCC3)cc1
- AC50 [13]: 1.64 µM (active)
- AC50 (INS1): 5.09 µM (active)

Structure (SMILES): CCOc1ccc(NC(=O)CCC(=O)N/N=C/c2ccc([N+](=O)[O-])s2)cc1
- AC50 [13]: 6.21 µM (active)
- IC50 (cells [14]): 13.6 µM (active)

Structure (SMILES): CC(=O)OC1(c2ccccc2)CCN(C2CCCCC2)CC1C (stereo not drawn)
- EC50 [12]: 1.06 µM (active)
